Test results from ChEMBL document CHEMBL4251753, “Discovery of Potent 2-Aryl-6,7-dihydro-5 H-pyrrolo[1,2- a]imidazoles as WDR5-WIN-Site Inhibitors Using Fragment-Based Methods and Structure-Based Design” (J Med Chem, 2018).

System: MV4-11
Assay: Antiproliferative activity against human MV4-11 cells after 7 days by cell titer glo assay
Assay type: functional
Settings: MV4-11, 168 h

| Compound | GI50 [µM] |
| --- | --- |
| O=C(Cc1ccc(Cl)c(Cl)c1)N[C@@H]1CCc2ccc(-c3cn4c(n3)CCC4)cc21 | 8.89 |
| COc1cc(C(=O)N[C@@H]2CCc3ccc(-c4cn5c(n4)CCC5)cc32)cc(OC)c1C | 7.25 |
| Cc1cc(C(=O)N[C@@H]2CCc3ccc(-c4cn5c(n4)CCC5)cc32)ccn1 | > 30 |
| COc1cc(C(=O)N[C@@H]2CCCc3ccc(-c4cn5c(n4)CCC5)cc32)ccc1C | 22.3 |
